Test results published in US12590062B2, “PD-1/PD-L1 inhibitors” (Gilead Sciences, Inc., priority 2017, dated 2026).

Experiments:
[1] = biological target: T1, interaction between the recombinant extracellular domain (ECD) of PD-1 and native cell-bound PD-L1 (Homo sapiens, UniProt Q9NZQ7); experiment: CHO/PD-L1 cell capture assay; format: cell-based; conditions: CHO cells overexpressing PD-L1, pre-incubated 1 hr with compound, captured on biotinylated Fc-PD-1 coated plates, 75 min at room temperature
T1 construct: expressed in transfected cells
Protocol: EC50-CHO/PD-L1-Capture Assay:
Compounds were tested in a cell capture assay to determine if they can specifically block the interaction between the recombinant extracellular domain (ECD) of PD-1 and native cell-bound PD-L1. Binding affinity of stable CHO cells overexpressing PD-L1 with its cognate recombinant ligand coated on plates was measured by counting the number of ‘captured’ cells. High-capacity streptavidin- coated plates were incubated with biotylated-Fc-PD-1 for 2 hours in PBS. Unbound ligand was washed out. CHO-PD-L1 cells (resuspended in PBS pH 7.4, 0.5 mM EDTA, and 2% bovine serum albumin) were pre-incubated for 1 hr with compound, dispensed into each PD-1 ECD coated well and then incubated for 75 min at room temperature. To stop the capture assay, a fixative/staining solution (final concentrations are 1.3% glutaraldehyde and 1.67 μM Draq5) was gently added to the cells and incubated for 2 hrs at room temperature. Unbound cells were then washed out and ‘captured’ cells were enumerated using a high-content microscopy system. EC50 values were calculated from the fit of the dose-response curves to a four-parameter equation. Representative data are shown below in Table 2.

[2] = biological target: T2, PD-1/PD-L1 interaction (Homo sapiens, UniProt Q9NZQ7); experiment: PD-1/PD-L1 NFAT reporter co-culture assay; format: cell-based; conditions: Jurkat PD-1 NFAT-luciferase cells co-cultured with aAPC-PD-L1 CHO cells, 6 hrs at 37° C.; read-out: EC50 NFAT Luciferase
T2 construct: expressed in transfected cells; host or cells: CHO cells (aAPC-PD-L1) co-cultured with Jurkat cells overexpressing PD-1 and an NFAT-luciferase reporter
Method in brief: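 Compounds are scored by restoration of NFAT-luciferase signal in PD-1-expressing Jurkat cells cultured 6 h at 37 °C on CHO cells presenting anti-CD3 and PD-L1; EC50 values derive from four-parameter curve fitting.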

[3] = biological target: PD-1/PD-L1 (Homo sapiens, UniProt Q9NZQ7); experiment: PD-1/PD-L1 biochemical protein-protein interaction assay (ALPHA); format: binding; conditions: 0.3 nM His tagged PD-L1, 2.5 nM biotinylated Fc-PD-1, 60 minutes at 25° C., read-out: IC50 PD-L1-PD-1 Alpha IC50-mono PD-L1-fcP-D1
Method in brief: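 Bead proximity read-out: compound-driven loss of ALPHA signal between anti-His acceptor and streptavidin donor beads (20 μg/mL acceptor). Proteins: 0.3 nM His-PD-L1, 2.5 nM biotin-Fc-PD-1, final. 60 min, 25° C, Hepes pH 7.4 buffer. IC50 via four-parameter dose-response fit.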

[4] = biological target: T3, PD-L1 (Homo sapiens, UniProt Q9NZQ7); experiment: PD-L1/PD-L1 dimerization biochemical protein-protein interaction assay (ALPHA); format: binding; conditions: compound-induced PD-L1 dimerization, head prints '1 nM' (0.5 nM His-tagged PD-L1 and 0.5 nM FLAG-tagged PD-L1), read-out: AC50 PDL1 Dimer Alpha 1 nM
T3 construct: determine if they can specifically dimerize the extracellular domains of PD-L1
Method in brief: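 After 2 h at 25 °C with compound, His- and FLAG-tagged PD-L1 ECDs (each 0.5 nM final; 25 mM Hepes pH 7.4, 150 mM NaCl) were detected by sequential anti-His acceptor and anti-FLAG donor bead incubations. Dose-response curves fitted to four-parameter equation for AC50.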

T1 sequence (Q9NZQ7 19-290): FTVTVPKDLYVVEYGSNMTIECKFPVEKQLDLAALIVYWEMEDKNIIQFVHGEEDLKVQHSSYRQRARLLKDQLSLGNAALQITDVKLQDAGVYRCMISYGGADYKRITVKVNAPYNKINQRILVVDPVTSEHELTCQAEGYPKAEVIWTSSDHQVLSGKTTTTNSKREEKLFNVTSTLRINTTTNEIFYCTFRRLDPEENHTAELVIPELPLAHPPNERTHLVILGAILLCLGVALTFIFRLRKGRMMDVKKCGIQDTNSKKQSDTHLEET
T2 sequence (Q9NZQ7 19-290): as above
T3 sequence (Q9NZQ7 19-238 limits assumed): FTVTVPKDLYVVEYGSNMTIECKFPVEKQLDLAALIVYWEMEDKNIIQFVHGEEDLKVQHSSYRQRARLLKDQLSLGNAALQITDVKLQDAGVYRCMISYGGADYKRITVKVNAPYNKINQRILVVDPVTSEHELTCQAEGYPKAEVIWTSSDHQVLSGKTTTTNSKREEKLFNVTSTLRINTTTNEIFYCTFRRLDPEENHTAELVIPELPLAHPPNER
T3 sequence (Q9NZQ7 19-238 limits assumed): as above
Chain of PD-1/PD-L1 (Q9NZQ7 19-238 limits assumed): as above

**Q.** Which EC50 [1] does the source give for COc1nc(O[C@H]2CCc3c(-c4cccc5c4CC[C@@H]5Oc4nc(OC)c(CNCC(=O)O)cc4Cl)cccc32)ccc1CNCC(=O)O [Example 1, ((6-(((1S,1′S)-1′-((5-(((carboxymethyl)amino)methyl)-3-chloro-6-methoxypyridin-2-yl)oxy)-2,2′,3,3′-tetrahydro-1H,1′H-[4,4′-biinden]-1-yl)oxy)-2-methoxypyridin-3-yl)methyl)glycine] here?
**A.** 382 nM

**Q.** And the EC50 [2]?
**A.** 516 nM

**Q.** Which results are given for COc1nc(O[C@H]2CCc3c(-c4cccc5c4CC[C@@H]5Oc4nc(OC)c(CNCC(=O)O)cc4Cl)cccc32)c(Cl)cc1CNCC(=O)O [Example 2, 2,2′-((((((1S,1′S)-2,2′,3,3′-tetrahydro-1H,1′H-[4,4′-biindene]-1,1′-diyl)bis(oxy))bis(5-chloro-2-methoxypyridine-6,3-diyl))bis(methylene))bis(azanediyl))diacetic acid]?
**A.** EC50 [1]: 1270 nM; EC50 [2]: 456 nM

**Q.** For COc1nc(O[C@H]2CCc3c(-c4cccc5c4CC[C@@H]5Oc4nc(OC)c(CNC[C@@H](O)CC(=O)O)cc4Br)cccc32)c(Br)cc1CNCCO [Example 8, (S)-4-(((5-bromo-6-(((1S,1′S)-1′-((3-bromo-5-(((2-hydroxyethyl)amino)methyl)-6-methoxypyridin-2-yl)oxy)-2,2′,3,3′-tetrahydro-1H,1′H-[4,4′-biinden]-1-yl)oxy)-2-methoxypyridin-3-yl)methyl)amino)-3-hydroxybutanoic acid], which EC50 [1] is on record?
**A.** 79.7 nM

**Q.** And the EC50 [2]?
**A.** 290 nM

**Q.** Which results are given for COc1nc(O[C@H]2CCc3c(-c4cccc5c4CC[C@@H]5Oc4nc(OC)c(CNCCO)cc4Br)cccc32)c(Br)cc1CNCCO [Example 10, 2,2′-((((((1S,1′S)-2,2′,3,3′-tetrahydro-1H,1′H-[4,4′-biindene]-1,1′-diyl)bis(oxy))bis(5-bromo-2-methoxypyridine-6,3-diyl))bis(methylene))bis(azanediyl))bis(ethan-1-ol)]?
**A.** EC50 [1]: 185 nM; EC50 [2]: 502 nM

**Q.** Cc1c(COc2cc(OCc3cncc(C#N)c3)c(CNC[C@@H](O)CC(=O)O)cc2Cl)cccc1-c1cccc(-c2ccc3cc(CNC[C@@H](O)CC(=O)O)ccc3c2)c1C [Example 31, (S)-4-(((6-(3′-((4-((((S)-3-carboxy-2-hydroxypropyl)amino)methyl)-2-chloro-5-((5-cyanopyridin-3-yl)methoxy)phenoxy)methyl)-2,2′-dimethyl-[1,1′-biphenyl]-3-yl)naphthalen-2-yl)methyl)amino)-3-hydroxybutanoic acid] was tested. Which EC50 [1] did it give?
**A.** 30.1 nM

**Q.** What about the EC50 [2] of the same compound?
**A.** 687 nM

**Q.** What does the source list for COc1nc(OCc2cccc(-c3cccc(COc4nc(OC)c(CN[C@@](C)(CO)C(=O)O)cc4Br)c3C)c2C)c(Br)cc1CN[C@@](C)(CO)C(=O)O [Example 45, (2S,2′S)-2,2′-((((((2,2′-dimethyl-[1,1′-biphenyl]-3,3′-diyl)bis(methylene))bis(oxy))bis(5-bromo-2-methoxypyridine-6,3-diyl))bis(methylene))bis(azanediyl))bis(3-hydroxy-2-methylpropanoic acid)]?
**A.** EC50 [1]: 166 nM; EC50 [2]: 75 nM

**Q.** Which EC50 [1] does the source give for COc1nc(OCc2cccc(-c3cccc(COc4nc(OC)c(CN5CC[C@@H](O)C[C@H]5C(=O)O)cc4Cl)c3C)c2C)c(Cl)cc1CN1CC[C@@H](O)C[C@H]1C(=O)O [Example 47, (2S,2′S,4R,4′R)-1,1′-(((((2,2′-dimethyl-[1,1′-biphenyl]-3,3′-diyl)bis(methylene))bis(oxy))bis(5-chloro-2-methoxypyridine-6,3-diyl))bis(methylene))bis(4-hydroxypiperidine-2-carboxylic acid)] here?
**A.** 226 nM

**Q.** What about the EC50 [2] of the same compound?
**A.** 503 nM

**Q.** With COc1nc(OCc2cccc(-c3cccc(COc4nc(OC)c(CN5C[C@@H](O)C[C@H]5C(=O)O)cc4Cl)c3C)c2C)c(Cl)cc1CN1C[C@@H](O)C[C@H]1C(=O)O [Example 48, (2S,2′S,4S,4'S)-1,1′-(((((2,2′-dimethyl-[1,1′-biphenyl]-3,3′-diyl)bis(methylene))bis(oxy))bis(5-chloro-2-methoxypyridine-6,3-diyl))bis(methylene))bis(4-hydroxypyrrolidine-2-carboxylic acid)] as the compound, how does the EC50 [1] read?
**A.** 298 nM

**Q.** And the EC50 [2]?
**A.** 412 nM

**Q.** Which EC50 [1] does the source give for COc1nc(OCc2cccc(-c3cccc(COc4nc(OC)c(CNC[C@H](O)CC(=O)O)cc4Cl)c3C)c2C)c(Cl)cc1CNC[C@H](O)CC(=O)O [Example 49, (3R,3′R)-4,4′-((((((2,2′-dimethyl-[1,1′-biphenyl]-3,3′-diyl)bis(methylene))bis(oxy))bis(5-chloro-2-methoxypyridine-6,3-diyl))bis(methylene))bis(azanediyl))bis(3-hydroxybutanoic acid)] here?
**A.** 124 nM

**Q.** And the EC50 [2]?
**A.** 274 nM

**Q.** COc1nc(OCc2cccc(-c3cccc(COc4nc(OC)c(CNC[C@H](O)CC(=O)O)cc4C4CC4)c3C)c2C)c(C2CC2)cc1CNC[C@H](O)CC(=O)O [Example 54, (3R,3′R)-4,4′-((((((2,2′-dimethyl-[1,1′-biphenyl]-3,3′-diyl)bis(methylene))bis(oxy))bis(5-cyclopropyl-2-methoxypyridine-6,3-diyl))bis(methylene))bis(azanediyl))bis(3-hydroxybutanoic acid)] was tested. Which EC50 [1] did it give?
**A.** 233 nM

**Q.** What about the EC50 [2] of the same compound?
**A.** 997 nM

**Q.** Which EC50 [1] does the source give for COc1nc(OCc2cccc(-c3cccc(COc4nc(OC)c(CNC[C@@H](O)CC(=O)O)cc4C4CC4)c3C)c2C)c(C2CC2)cc1CNC[C@@H](O)CC(=O)O [Example 55, (3S,3′S)-4,4′-((((((2,2′-dimethyl-[1,1′-biphenyl]-3,3′-diyl)bis(methylene))bis(oxy))bis(5-cyclopropyl-2-methoxypyridine-6,3-diyl))bis(methylene))bis(azanediyl))bis(3-hydroxybutanoic acid)] here?
**A.** 315 nM

**Q.** What about the EC50 [2] of the same compound?
**A.** 1520 nM

**Q.** Which results are given for COc1nc(OCc2cccc(-c3cccc(COc4nc(OC)c(CN(C)CC(=O)O)cc4Cl)c3C)c2C)c(Cl)cc1CN(C)CC(=O)O [Example 76, 2,2′-((((((2,2′-dimethyl-[1,1′-biphenyl]-3,3′-diyl)bis(methylene))bis(oxy))bis(5-chloro-2-methoxypyridine-6,3-diyl))bis(methylene))bis(methylazanediyl))diacetic acid]?
**A.** EC50 [1]: 83.2 nM; EC50 [2]: 1060 nM

**Q.** Which results are given for COc1nc(OCc2cccc(-c3cccc(COc4nc(OC)c(C[N+](C)(C)CC(=O)O)cc4Cl)c3C)c2C)c(Cl)cc1C[N+](C)(C)CC(=O)O [Example 78, 1,1′-((((2,2′-dimethyl-[1,1′-biphenyl]-3,3′-diyl)bis(methylene))bis(oxy))bis(5-chloro-2-methoxypyridine-6,3-diyl))bis(N-(carboxymethyl)-N,N-dimethylmethanaminium)]?
**A.** EC50 [1]: 187 nM; EC50 [2]: 395 nM

**Q.** Which results are given for Cc1c(COc2cc(OCc3cncc(C#N)c3)c(CNC[C@@H](O)CC(=O)O)cc2Cl)cccc1-c1cccc(-c2ccc(OCCNC[C@@H](O)CC(=O)O)c(C(F)(F)F)c2)c1C [Example 94, (S)-4-((4-((4″-(2-(((S)-3-carboxy-2-hydroxypropyl)amino)ethoxy)-2,2′-dimethyl-3″-(trifluoromethyl)-[1,1′:3′,1″-terphenyl]-3-yl)methoxy)-5-chloro-2-((5-cyanopyridin-3-yl)methoxy)benzyl)amino)-3-hydroxybutanoic acid]?
**A.** EC50 [1]: 228 nM; EC50 [2]: 210 nM

**Q.** What does the source list for N#Cc1cncc(COc2cc(O[C@H]3CCc4c(-c5cccc(-c6ccc7sc(CNC[C@@H]8CCC(=O)N8)nc7c6)c5Cl)cccc43)c(Cl)cc2CNC[C@@H]2CCC(=O)N2)c1 [Example 801]?
**A.** IC50 [3]: 9.69 nM; EC50 [2]: ≥ 50000 nM; AC50 [4]: ≥ 10000 nM

**Q.** Which IC50 [3] does the source give for N#Cc1cncc(COc2cc(O[C@H]3CCc4c(-c5cccc(-c6nc7ccc(CNC[C@@H]8CCC(=O)N8)cn7n6)c5Cl)cccc43)c(Cl)cc2CNC[C@@H]2CCC(=O)N2)c1 [Example 802] here?
**A.** 0.084 nM

**Q.** What about the EC50 [2] of the same compound?
**A.** 177 nM

**Q.** And the AC50 [4]?
**A.** 55.5 nM

**Q.** Which IC50 [3] does the source give for N#Cc1cncc(COc2nc(O[C@H]3CCc4c(-c5cccc(-c6nc7ccc(CNC[C@@H](O)CC(=O)O)cn7n6)c5Cl)cccc43)c(Cl)cc2CNC[C@@H](O)CC(=O)O)c1 [Example 803] here?
**A.** 0.064 nM

**Q.** And the EC50 [2]?
**A.** 49 nM

**Q.** And the AC50 [4]?
**A.** 11.7 nM
